Read-outs that look alike come from different tables or passages of the source.
How the values were obtained:
c-Myc/Max/Ebox DNA = molecular target: T1, c-Myc/Max/Ebox DNA (Homo sapiens, UniProt P01106); assay: c-Myc/Max/Ebox DNA AlphaScreen Assay; format: binding; conditions: Table 2, compounds of FIG. 1; calculated IC50 class
T1 construct: his6 (cleaved yes)
Experimental: Compounds of the invention were assayed for c-Myc/Max/EBox activity as described in the following protocol. Human his6-c-Myc and his6-Max were used with biotinylated DNA containing a single Ebox sequence (biotin[…]) purchased from MWG Operon. Free c-Myc was generated from his6-c-Myc through thrombin cleavage of the his6 tag. For 384-well plate assays, 10 μL of a 2× solution of free c-Myc (20 nM final), Ni^2+ coated Acceptor Beads (25 μg/ml final), and biotinylated Ebox oligo (10 nM final) were added to 384-well plates with a Biotek EL406 liquid handler. 50 nL of compounds from stock plates were added by pin transfer using a Janus Workstation (PerkinElmer), allowing the compounds to interact with c-Myc prior to c-Myc binding with Max. In the current assay, DMSO was not allowed to exceed 2% v/v of the assay. 10 μl of 2× master mix containing streptavidin-coated donor beads (25 μg/ml final) and his6-Max (5 nM) were added. AlphaScreen measurements were performed on an Envision plate reader (PerkinElmer) utilizing the manufacturer's protocol.
Both master mixes were made in room temperature assay buffer (50 mM HEPES, 150 mM NaCl, 0.2% w/v BSA, 0.02% w/v Tween20, 40 μg/ml glycogen, 500 μM DTT, pH 8.0, wherein both DTT and glycogen were added fresh). Alpha beads were added to respective master solutions. All subsequent steps were performed in low light conditions. Solution 1:2× solution of components with final concentrations of c-Myc Ni-coated Acceptor Beads (25 μg/ml), and biotinylated Ebox oligo (10 nM). Solution 2:2× solution of streptavidin-coated donor beads (25 μg/ml final) and his6-Max 10 μL. […] 50 nL of compounds from stock plates were added by pin transfer using a Janus Workstation. Solution 2 (10 μl) was added with the liquid handler. Plates were sealed with foil to block light exposure and prevent evaporation. Plates were very briefly centrifuged followed by 2 hour incubation. […] Excitation was at 680 nm for donor bead release of singlet oxygen and emission was read with a bandpass filter from 520-620 nm.

[1] = system: human small lung cancer cell line H2171; assay: Cell Viability Assay (ATPlite); format: cell-based; conditions: Table 2, compounds of FIG. 1, H2171 cells, three days, ATPlite, calculated IC50 class, read-out: H2171 Activity
Experimental: Compounds of the invention were assayed for cell viability using the human small lung cancer cell line H2171 as described in the following protocol. Cells were counted and adjusted to 20,000 cells/mL. Using a Biotek EL406, 50 μL of cells in media were distributed into 384 well white plates from Thermo. Immediately after plating, compound in DMSO was distributed to plates. Compounds were added to plates using a 50 nL 384 well pin transfer manifold on a Janus workstation. Stocks were arrayed in 10 point dose response in DMSO stock in 384 well Greiner compound plates. After the addition of compounds, plates were incubated for three days in a 37° C. incubator. Cell viability was read out using ATPlite from Perkin Elmer. Lyophilized powder was resuspended in lysis buffer and diluted 1:2 with deionized water. 25 μL of this solution was added to each well using the Biotek liquid handler. Plates were incubated for 15 minutes at room temperature before signal was read on an Envision Plate Reader. The data from this assay are summarized in Tables 2 and 3 below (H2171 activity).

T1 sequence (P01106 whole entry): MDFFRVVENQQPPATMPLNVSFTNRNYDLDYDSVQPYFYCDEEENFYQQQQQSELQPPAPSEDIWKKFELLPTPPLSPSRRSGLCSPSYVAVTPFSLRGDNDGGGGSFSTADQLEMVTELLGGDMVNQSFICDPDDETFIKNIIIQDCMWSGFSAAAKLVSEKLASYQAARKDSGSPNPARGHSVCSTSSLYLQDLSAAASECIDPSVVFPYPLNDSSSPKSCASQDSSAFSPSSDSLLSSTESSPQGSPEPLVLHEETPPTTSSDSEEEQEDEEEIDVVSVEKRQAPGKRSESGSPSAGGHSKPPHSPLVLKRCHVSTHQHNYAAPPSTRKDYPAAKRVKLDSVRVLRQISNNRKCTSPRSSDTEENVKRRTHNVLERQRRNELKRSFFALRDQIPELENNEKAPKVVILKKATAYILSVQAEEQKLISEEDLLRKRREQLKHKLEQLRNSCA

IC50 (c-Myc/Max/Ebox DNA) | IC50 [1] | IC50 ([1]; Homo sapiens, NCI-H2171, 72 h) | Compound
< 300 nM |  | < 300 nM | COCCNCCC(=O)Nc1sc2c(c1-c1nc3cc(F)ccc3s1)CC(C)NC2C (single isomer, unassigned) [Compound 544, N-(3-(5-Fluorobenzo[d]thiazol-2-yl)-5,7-dimethyl-4,5,6,7-tetrahydrothieno[2,3-c]pyridin-2-yl)-3-((2-methoxyethyl)amino)propanamide]
< 300 nM | < 300 nM |  | COCCNCCC(=O)Nc1sc2c(c1-c1nc3cc(F)ccc3s1)CC(C)NC2C (single isomer, unassigned) [Compound 545, N-(3-(5-Fluorobenzo[d]thiazol-2-yl)-5,7-dimethyl-4,5,6,7-tetrahydrothieno[2,3-c]pyridin-2-yl)-3-((2-methoxyethyl)amino)propanamide]
> 10000 nM | < 300 nM |  | COCCNCCC(=O)Nc1sc2c(c1-c1nc3cc(F)ccc3s1)CC(C)NC2C (single isomer, unassigned) [Compound 546, N-(3-(5-Fluorobenzo[d]thiazol-2-yl)-5,7-dimethyl-4,5,6,7-tetrahydrothieno[2,3-c]pyridin-2-yl)-3-((2-methoxyethyl)amino)propanamide]
1000 to 10000 nM | < 300 nM |  | COCCNCCC(=O)Nc1sc2c(c1-c1nc3cc(F)ccc3s1)CC(C)NC2C (single isomer, unassigned) [Compound 547, N-(3-(5-Fluorobenzo[d]thiazol-2-yl)-5,7-dimethyl-4,5,6,7-tetrahydrothieno[2,3-c]pyridin-2-yl)-3-((2-methoxyethyl)amino)propanamide]
< 300 nM | < 300 nM |  | COCCNCCC(=O)Nc1sc2c(c1-c1nc3cc(-c4cnn(C)c4)ccc3s1)CC(C)NC2C (single isomer, unassigned) [Compound 565, N-(5,7-Dimethyl-3-(5-(1-methyl-1H-pyrazol-4-yl)benzo[d]thiazol-2-yl)-4,5,6,7-tetrahydrothieno[2,3-c]pyridin-2-yl)-3-((2-methoxyethyl)amino)propanamide]
1000 to 10000 nM | < 300 nM |  | COCCNCCC(=O)Nc1sc2c(c1-c1nc3cc(-c4cnn(C)c4)ccc3s1)CC(C)NC2C (single isomer, unassigned) [Compound 566, N-(5,7-Dimethyl-3-(5-(1-methyl-1H-pyrazol-4-yl)benzo[d]thiazol-2-yl)-4,5,6,7-tetrahydrothieno[2,3-c]pyridin-2-yl)-3-((2-methoxyethyl)amino)propanamide]
1000 to 10000 nM | < 300 nM |  | COCCNCCC(=O)Nc1sc2c(c1-c1nc3cc(-c4cnn(C)c4)ccc3s1)CC(C)NC2C (single isomer, unassigned) [Compound 567, N-(5,7-Dimethyl-3-(5-(1-methyl-1H-pyrazol-4-yl)benzo[d]thiazol-2-yl)-4,5,6,7-tetrahydrothieno[2,3-c]pyridin-2-yl)-3-((2-methoxyethyl)amino)propanamide]

Further lines, the molecule ahead of its results:

Compound | IC50 (c-Myc/Max/Ebox DNA) | IC50 [1] | IC50 ([1]; Homo sapiens, NCI-H2171, 72 h)
COCCNCCC(=O)Nc1sc2c(c1-c1nc3cc(-c4cccnc4)ccc3s1)CC(C)NC2C (single isomer, unassigned) [Compound 526, N-(5,7-Dimethyl-3-(5-(pyridin-3-yl)benzo[d]thiazol-2-yl)-4,5,6,7-tetrahydrothieno[2,3-c]pyridin-2-yl)-3-((2-methoxyethyl)amino)propanamide] | 1000 to 10000 nM | 300 to 1000 nM | 
COCCNCCC(=O)Nc1sc2c(c1-c1nc3ccc(-c4cccnc4)cc3s1)CC(C)NC2C (single isomer, unassigned) [Compound 527, N-(5,7-Dimethyl-3-(6-(pyridin-3-yl)benzo[d]thiazol-2-yl)-4,5,6,7-tetrahydrothieno[2,3-c]pyridin-2-yl)-3-((2-methoxyethyl)amino)propanamide] | 300 to 1000 nM | < 300 nM | 
COCCNCCC(=O)Nc1sc2c(c1-c1nc3ccc(-c4cccnc4)cc3s1)CC(C)NC2C (single isomer, unassigned) [Compound 528, N-(5,7-Dimethyl-3-(6-(pyridin-3-yl)benzo[d]thiazol-2-yl)-4,5,6,7-tetrahydrothieno[2,3-c]pyridin-2-yl)-3-((2-methoxyethyl)amino)propanamide] | 300 to 1000 nM | 300 to 1000 nM | 
CCC1Cc2c(sc(NC(=O)CCNCCOC)c2-c2nc3ccccc3s2)C(CC)N1 (single isomer, unassigned) [Compound 536, N-(3-(Benzo[d]thiazol-2-yl)-5,7-diethyl-4,5,6,7-tetrahydrothieno[2,3-c]pyridin-2-yl)-3-((2-methoxyethyl)amino)propanamide] | 300 to 1000 nM |  | < 300 nM
CCC1Cc2c(sc(NC(=O)CCNCCOC)c2-c2nc3ccccc3s2)C(CC)N1 (single isomer, unassigned) [Compound 537, N-(3-(Benzo[d]thiazol-2-yl)-5,7-diethyl-4,5,6,7-tetrahydrothieno[2,3-c]pyridin-2-yl)-3-((2-methoxyethyl)amino)propanamide] | > 10000 nM | < 300 nM | 
COCCNCCC(=O)Nc1sc2c(c1-c1nc3cc(-c4ccncc4)ccc3s1)CCNC2C (single isomer, unassigned) [Compound 548, 3-((2-Methoxyethyl)amino)-N-(7-methyl-3-(5-(pyridin-4-yl)benzo[d]thiazol-2-yl)-4,5,6,7-tetrahydrothieno[2,3-c]pyridin-2-yl)propanamide] | < 300 nM | < 300 nM | 
COCCNCCC(=O)Nc1sc2c(c1-c1nc3cc(-c4ccncc4)ccc3s1)CC(C)NC2 (single isomer, unassigned) [Compound 549, 3-((2-Methoxyethyl)amino)-N-(5-methyl-3-(5-(pyridin-4-yl)benzo[d]thiazol-2-yl)-4,5,6,7-tetrahydrothieno[2,3-c]pyridin-2-yl)propanamide] | < 300 nM |  | < 300 nM
COCCNCCC(=O)Nc1sc2c(c1-c1nc3cc(C(F)(F)F)ccc3s1)CC(C)NC2 (single isomer, unassigned) [Compound 550, 3-((2-Methoxyethyl)amino)-N-(5-methyl-3-(5-(trifluoromethyl)benzo[d]thiazol-2-yl)-4,5,6,7-tetrahydrothieno[2,3-c]pyridin-2-yl)propanamide] | < 300 nM |  | < 300 nM
COCCNCCC(=O)Nc1sc2c(c1-c1nc3cc(C(F)(F)F)ccc3s1)CC(C)NC2 (single isomer, unassigned) [Compound 551, 3-((2-Methoxyethyl)amino)-N-(5-methyl-3-(5-(trifluoromethyl)benzo[d]thiazol-2-yl)-4,5,6,7-tetrahydrothieno[2,3-c]pyridin-2-yl)propanamide] | < 300 nM | < 300 nM | 
COCCNCCC(=O)Nc1sc2c(c1-c1nc3cc(-c4cnn(C)c4)ccc3s1)CC(C)NC2C (single isomer, unassigned) [Compound 564, N-(5,7-Dimethyl-3-(5-(1-methyl-1H-pyrazol-4-yl)benzo[d]thiazol-2-yl)-4,5,6,7-tetrahydrothieno[2,3-c]pyridin-2-yl)-3-((2-methoxyethyl)amino)propanamide] | < 300 nM |  | < 300 nM
COCCNCCC(=O)Nc1sc2c(c1-c1nc3cc(-c4ccncc4)ccc3s1)CCNC2C (single isomer, unassigned) [Compound 569, 3-((2-Methoxyethyl)amino)-N-(7-methyl-3-(5-(pyridin-4-yl)benzo[d]thiazol-2-yl)-4,5,6,7-tetrahydrothieno[2,3-c]pyridin-2-yl)propanamide] | 1000 to 10000 nM | 1000 to 10000 nM | 
